# Data as given in patent publication US20230219886A1, “NOVEL SELENO-NSAID ANALOGS AND USES THEREOF” (THE PENN STATE RESEARCH FOUNDATION, priority 2020, published 2023).
# Entries after “also recorded” stand apart in the source; their conditions may differ.
# Tests used:
# [1] = system: BxPC3 cells; assay: Subcutaneous xenograft tumor inhibition study in athymic nude mice; format: in vivo
# Experimental: The cytotoxic response of 6a on pancreatic ductal adenocarcinoma cell lines (Panc-1, MIA PaCa-2 and BxPC3) was evaluated using MTT assay. […] To determine whether the in vitro efficacy of 6a translates to in vivo models, we performed a pilot tumor inhibition study in xenograft mouse model using BxPC3 cells. Athymic nude mice were subcutaneously injected with BxPC3 cells. After two weeks, mice were injected intraperitoneally with vehicle DMSO (control) or 6a (three times a week at a dose of 4 mg/Kg in 100 μL of DMSO). Tumor size and animal weights were measured twice a week.
# [2] = system: ME: LOX IMVI; assay: NCI-60 dose-response, LOX IMVI; format: cell-based, human; details: 48 h
# Source text: NCI-60 Analysis. 1a and 6a were submitted to National Cancer Institute's (NCI) Developmental Therapeutics Program (DTP) where the cytotoxicity profile was investigated across their 60 human cancer cell line panel according to the protocol available on multiple sources (71-73, 83). The COMPARE algorithm (73), was utilized to evaluate the activity profile of 6a in comparison to those of known cytotoxins established in marketed drugs and standard agent data sets in order to correlate plausible modes of action.
# NCI-60 analysis. Compounds 1a, 5a and 6a were submitted to the National Cancer Institute's (NCI) Developmental Therapeutics Program (DTP). NCI-60 program consists in a panel of 60 human cancer cell lines from a variety of cancers, including refractory tumors such as lung, ovarian, CRC, breast, brain and renal cancers, and melanomas together with more treatable cancers such as leukemias (71). 1a [NSC: 803071], 5a [NSC: 820332] and 6a [NSC: 811013] were initially screened at one dose (10 μM) at 48 h. Then, NCI selected only compound 6a to perform dose-response characterization (72).
compound,measurement,setting,value
"C[Se]C(=O)CC1=C(C)/C(=C/c2ccc([S+](C)[O-])cc2)c2ccc(F)cc21 (centres unmarked) [Compound 6a, Se-methyl (Z)-2-(5-fluoro-2-methyl-1-(4-(methylsulfinyl)benzylidene)-1H-indenyl)ethaneselenoate]",reduction of tumor weight as compared to control mice,"[1]; 4 mg/Kg i.p. three times a week, 22 days since start of treatment",42.9%
same,tumor growth,"[1]; 4 mg/Kg i.p., three times a week, nude mice xenograft",significantly inhibited; also recorded: significantly reduced
same,GI50,[2],14.1 nM
same,LC50 (concentration giving 50% net cell kill),[2],62.1 nM
same,TGI,[2],29.6 nM
